From US20250171423A1, “PHARMACEUTICAL COMPOUNDS FOR THE TREATMENT OF COMPLEMENT MEDIATED DISORDERS” (Achillion Pharmaceuticals, Inc., priority 2020, published 2025) come the findings set out here.

A value given as a limit tells only on which side of the number the result lay.

This assay concerns the target T1, Human complement C1s enzyme (Homo sapiens, UniProt P09871).
T1 construct: purified from human serum, Complement Technology, Inc; purchased Complement Technology, Inc; host or cells: human serum
T1 sequence (P09871 438-688 limits assumed): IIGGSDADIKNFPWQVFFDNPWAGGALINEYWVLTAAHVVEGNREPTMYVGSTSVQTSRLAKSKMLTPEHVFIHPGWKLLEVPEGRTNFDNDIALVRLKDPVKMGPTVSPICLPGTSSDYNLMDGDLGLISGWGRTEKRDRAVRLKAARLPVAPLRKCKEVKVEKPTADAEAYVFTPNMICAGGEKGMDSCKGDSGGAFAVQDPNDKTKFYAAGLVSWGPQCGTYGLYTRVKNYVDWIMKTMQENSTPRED
T1 sequence (P09871 16-437 partner limits assumed): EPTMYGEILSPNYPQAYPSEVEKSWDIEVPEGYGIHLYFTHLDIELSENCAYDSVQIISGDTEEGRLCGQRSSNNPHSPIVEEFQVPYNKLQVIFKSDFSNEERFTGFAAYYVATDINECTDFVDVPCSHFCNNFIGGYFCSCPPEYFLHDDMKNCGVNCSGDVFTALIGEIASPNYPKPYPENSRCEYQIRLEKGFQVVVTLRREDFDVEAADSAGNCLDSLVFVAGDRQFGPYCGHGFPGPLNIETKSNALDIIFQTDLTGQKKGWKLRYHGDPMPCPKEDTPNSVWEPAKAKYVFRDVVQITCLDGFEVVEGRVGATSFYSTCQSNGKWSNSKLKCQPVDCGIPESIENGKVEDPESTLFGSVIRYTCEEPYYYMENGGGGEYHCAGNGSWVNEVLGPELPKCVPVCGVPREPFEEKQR
As to the kind of experiment: Human C1s Enzyme Assay. Conditions: human C1s 1.16 nM, 5 min preincubation, substrate Z-L-Lys-SBzl 100 μM, A405; read-out: C1s Protease Activity. The assay is classed as biochemical. As for the experimental part:
The assay of Example 3 was used to determine the IC50's of the compounds. Other standard complement assays are also available.
Example 3. Human C1s Enzyme Assay
Human complement C1s enzyme (purified from human serum, Complement Technology, Inc.) at 1.16 nM final concentration was incubated with test compound at various concentrations for 5 min at room temperature in 50 mM Tris, 1 M NaCl, pH 7.5. A synthetic substrate Z-L-Lys-SBzl and DTNB (Ellman's reagent) were added to final concentrations of 100 μM each. Absorbance at 405 nm (A405) was recorded at 30 second intervals for 30 min using a microplate spectrophotometer. IC50 values were calculated by nonlinear regression of complement C1s reaction rates as a function of test compound concentration.
`N=C(N)c1csc(CNC(=O)[C@@H]2C[C@@H](C(F)F)CN2C(=O)CNC(=O)CCCOc2ccccc2)c1` [Compound 147, (2S,4R)-N-((4-carbamimidoylthiophen-2-yl)methyl)-4-(difluoromethyl)-1-((4-phenoxybutanoyl)glycyl)pyrrolidine-2-carboxamide]: the IC50 fell in the range of 100 to 1000 nM.

On to `N=C(N)c1csc([C@@H](NC(=O)[C@@H]2C[C@@H](OC(F)F)CN2C(=O)CNC(=O)c2ccc(Oc3ccccc3)cc2)C(N)=O)c1` (relative stereo) [Compound 214, (2S,4R)-N-((S*)-2-amino-1-(4-carbamimidoylthiophen-2-yl)-2-oxoethyl)-4-(difluoromethoxy)-1-((4-phenoxybenzoyl)glycyl)pyrrolidine-2-carboxamide], for which the IC50 was more than 1000 nM.

For `N=C(N)c1csc([C@H](CO)NC(=O)[C@@H]2C[C@@H](OC(F)F)CN2C(=O)CNC(=O)c2ccc(Oc3ccccc3)cc2)c1` [Compound 198, (2S,4R)-N-((S)-1-(4-carbamimidoylthiophen-2-yl)-2-hydroxyethyl)-4-(difluoromethoxy)-1-((4-phenoxybenzoyl)glycyl)pyrrolidine-2-carboxamide], the IC50 is less than 100 nM.

Take `C[C@@H](NC(=O)[C@@H]1C[C@@H](OC(F)F)CN1C(=O)CNC(=O)c1ccc(Oc2ccccc2)cc1)c1cc(C(=N)N)cs1` [Compound 172, (2S,4R)-N-((R)-1-(4-carbamimidoylthiophen-2-yl)ethyl)-4-(difluoromethoxy)-1-((4-phenoxybenzoyl)glycyl)pyrrolidine-2-carboxamide]: the IC50 was less than 100 nM.

For the molecule `C[C@@H](NC(=O)[C@@H]1C[C@@]2(CN1C(=O)CNC(=O)CCCOc1ccccc1)CC2(F)F)c1cc(C(=N)N)cs1` [Compound 105, (3S,6S)-N-((R)-1-(4-carbamimidoylthiophen-2-yl)ethyl)-1,1-difluoro-5-((4-phenoxy-butanoyl)glycyl)-5-azaspiro[2.4]heptane-6-carboxamide], the IC50 fell in the range of 100 to 1000 nM.

`C[C@@]12C[C@@H]1N(C(=O)CNC(=O)c1ccc(Oc3ccccc3)cc1)[C@H](C(=O)NCc1cc(C(=N)N)c(C(F)(F)F)s1)C2` [Compound 248, (1S,3S,5S)-N-((4-carbamimidoyl-5-(trifluoromethyl)thiophen-2-yl)methyl)-5-methyl-2-((4-phenoxybenzoyl)glycyl)-2-azabicyclo[3.1.0]hexane-3-carboxamide]: the IC50 is more than 1000 nM.

As to `COC[C@@]1(F)C[C@@H](C(=O)N[C@H](C)c2cc(C(=N)N)cs2)N(C(=O)CNC(=O)c2ccc(C(=O)c3ccccc3)cc2)C1` [Compound 218, (2S,4R)-1-((4-benzoylbenzoyl)glycyl)-N-((R)-1-(4-carbamimidoylthiophen-2-yl)ethyl)-4-fluoro-4-(methoxymethyl)pyrrolidine-2-carboxamide], the IC50 is less than 100 nM.

For `CN(C)C[C@@]1(F)C[C@@H](C(=O)NCc2cc(C(=N)N)cs2)N(C(=O)CNC(=O)CCCOc2ccccc2)C1` [Compound 129, (2S,4S)-N-[(4-carbamimidoylthiophen-2-yl)methyl]-4-[(dimethylamino)methyl]-4-fluoro-1-[2-(4-phenoxybutanamido)acetyl]pyrrolidine-2-carboxamide], the IC50 is less than 100 nM.

On to `N=C(N)c1csc(CNC(=O)[C@@H]2CC3(CN2C(=O)CNC(=O)CCCOc2ccc(F)cc2)OCCO3)c1` [Compound 65, (S)-N-((4-carbamimidoylthiophen-2-yl)methyl)-7-((4-(4-fluorophenoxy)butanoyl)glycyl)-1,4-dioxa-7-azaspiro[4.4]nonane-8-carboxamide], for which the IC50 was less than 100 nM.

With `N=C(N)c1csc(CNC(=O)[C@@H]2CC(=C(F)F)CN2C(=O)CNC(=O)CCCOc2ccccc2)c1` [Compound 26, (S)-N-((4-carbamimidoylthiophen-2-yl)methyl)-4-(difluoromethylene)-1-((4-phenoxy-butanoyl)glycyl)pyrrolidine-2-carboxamide], the IC50 was less than 100 nM.

With `C[C@@]12C[C@@H]1N(C(=O)CNC(=O)CCCOC1CCCCC1)[C@H](C(=O)NCc1cc(C(=N)N)cs1)C2` [Compound 117], the IC50 is less than 100 nM.

On to `N=C(N)c1csc(CNC(=O)[C@@H]2CCC(=O)N2C(=O)CNC(=O)c2ccc(Oc3ccccc3)cc2)c1` [Compound 7, (S)-N-((4-carbamimidoylthiophen-2-yl)methyl)-5-oxo-1-((4-phenoxybenzoyl)glycyl)-pyrrolidine-2-carboxamide], for which the IC50 is less than 100 nM.

With `N=C(N)c1csc(CNC(=O)[C@@H]2C[C@H](OC(F)F)CN2C(=O)CNC(=O)c2ccc(Oc3ccccc3)cc2)c1` [Compound 36, (2S,4S)-N-((4-carbamimidoylthiophen-2-yl)methyl)-4-(difluoromethoxy)-1-((4-phenoxybenzoyl)glycyl)pyrrolidine-2-carboxamide], the IC50 is less than 100 nM.

On to `CC(C)O[C@@H]1C[C@@H](C(=O)NCc2cc(C(=N)N)cs2)N(C(=O)CNC(=O)c2ccc(Oc3ccccc3)cc2)C1` [Compound 138, (2S,4R)-N-((4-carbamimidoylthiophen-2-yl)methyl)-4-isopropoxy-1-((4-phenoxybenzoyl)glycyl)pyrrolidine-2-carboxamide], for which the IC50 is less than 100 nM.

As to `CC(C)C(NC(=O)[C@@H]1C[C@@H](OC(F)F)CN1C(=O)CNC(=O)c1ccc(Oc2ccccc2)cc1)c1cc(C(=N)N)cs1` (stereo in doubt) [Compound 188, (2S,4R)-N-((S)-1-(4-carbamimidoylthiophen-2-yl)-2-methylpropyl)-4-(difluoromethoxy)-1-((4-phenoxybenzoyl)glycyl)pyrrolidine-2-carboxamide], the IC50 was more than 1000 nM.

As for `N=C(N)c1csc(CNC(=O)[C@@H]2C[C@H](c3ccccc3)CN2C(=O)CNC(=O)c2ccc(Oc3ccccc3)cc2)c1` [Compound 15, (2S,4R)-N-((4-carbamimidoylthiophen-2-yl)methyl)-1-((4-phenoxybenzoyl)glycyl)-4-phenylpyrrolidine-2-carboxamide], the IC50 lay in the range of 100 to 1000 nM.

Regarding `N=C(N)c1csc(CNC(=O)[C@@H]2C[C@@H](OC(F)F)CN2C(=O)CNC(=O)CCCOc2ccccc2)c1` [Compound 29, (2S,4R)-N-((4-carbamimidoylthiophen-2-yl)methyl)-4-(difluoromethoxy)-1-((4-phenoxybutanoyl)glycyl)pyrrolidine-2-carboxamide], the IC50 is less than 100 nM.

Take `C[C@@]12C[C@@H]1N(C(=O)CN1Cc3cc(Oc4ccccc4)ccc3C1=O)[C@H](C(=O)NCc1cc(C(=N)N)cs1)C2` [Compound 101, (1S,3S,5S)-N-((4-carbamimidoylthiophen-2-yl)methyl)-5-methyl-2-(2-(1-oxo-5-phenoxyisoindolin-2-yl)acetyl)-2-azabicyclo[3.1.0]hexane-3-carboxamide]: the IC50 was less than 100 nM.

For the molecule `C[C@@]12C[C@@H]1N(C(=O)CNC(=O)c1ccc(OC3CCCCC3)cc1)[C@H](C(=O)NCc1cc(C(=N)N)cs1)C2` [Compound 160, (1S,3S,5S)-N-((4-carbamimidoylthiophen-2-yl)methyl)-2-((4-(cyclohexyloxy)benzoyl)glycyl)-5-methyl-2-azabicyclo[3.1.0]hexane-3-carboxamide], the IC50 was less than 100 nM.

For the molecule `CC(C)[C@@H](NC(=O)[C@@H]1CC2(CN1C(=O)CNC(=O)CCCOc1ccccc1)OCCO2)c1cc(C(=N)N)cs1` [Compound 167, (S)-N-((R)-1-(4-carbamimidoylthiophen-2-yl)-2-methylpropyl)-7-((4-phenoxybutanoyl)glycyl)-1,4-dioxa-7-azaspiro[4.4]nonane-8-carboxamide], the IC50 was more than 1000 nM.

For the molecule `COC[C@@]1(F)C[C@@H](C(=O)N[C@H](C)c2cc(C(=N)N)cs2)N(C(=O)CNC(=O)c2ccc(Oc3ccccc3)cc2)C1` [Compound 196, (2S,4R)-N-((R)-1-(4-carbamimidoylthiophen-2-yl)ethyl)-4-fluoro-4-(methoxymethyl)-1-((4-phenoxybenzoyl)glycyl)pyrrolidine-2-carboxamide], the IC50 is less than 100 nM.

Turning to `N=C(N)c1csc(CNC(=O)[C@@H]2C[C@]3(CO)C[C@@H]3N2C(=O)CNC(=O)c2ccc(Oc3ccccc3)cc2)c1` [Compound 9, (1S,3S,5R)-N-((4-carbamimidoylthiophen-2-yl)methyl)-5-(hydroxymethyl)-2-((4-phenoxybenzoyl)glycyl)-2-azabicyclo[3.1.0]hexane-3-carboxamide], the IC50 was less than 100 nM.

Consider `C[C@@]12C[C@@H]1N(C(=O)CNC(=O)c1ccc(Oc3ccccc3)cc1)[C@H](C(=O)N1CCc3c(C(=N)N)csc3C1)C2` [Compound 112, N-(2-((1S,3S,5S)-3-(3-carbamimidoyl-4,5,6,7-tetrahydrothieno[2,3-c]pyridine-6-carbonyl)-5-methyl-2-azabicyclo[3.1.0]hexan-2-yl)-2-oxoethyl)-4-phenoxybenzamide], for which the IC50 was in the range of 100 to 1000 nM.
